Laboratory results from patent US6537797B1, “Compositions and methods useful in bioremediation of polychlorinated biphenyls” (Indiana University, Advanced Research and Technology …, priority 1999, dated 2003).

What was measured:
Assay type in all cases: cell-based
bacterial strain SK-1 [1] = assay: Growth substrate tests in liquid medium; conditions: initial concentration 100 parts per million, except chlorobenzoate 2-3 millimolar
Protocol: (§1) The ability of the four isolated strains to grow on selected polychlorobiphenyls as a sole carbon source was assessed.
(§2) (All tests were conducted in a liquid medium. The initial concentration of the organic substrate was 100 parts per million, except chlorobenzoate, which was 2-3 millimolar).

bacterial strain SK-2 = assay: Growth substrate tests in liquid medium; conditions: initial concentration 100 parts per million, except chlorobenzoate 2-3 millimolar
Protocol: as §1, §2

bacterial strain SK-3 [2] = assay: Growth substrate tests in liquid medium; conditions: initial concentration 100 parts per million, except chlorobenzoate 2-3 millimolar
Protocol: as §1, §2

bacterial strain SK-4 [3] = assay: Growth substrate tests in liquid medium; conditions: initial concentration 100 parts per million, except chlorobenzoate 2-3 millimolar
Protocol: as §1, §2

bacterial strain SK-4 [4] = assay: Characterization of SK-4: growth on and degradation of 2,2′-DCBP and 2,4′-DCBP; conditions: 1.5×10^7 cells per milliliter
Protocol: The same methods for determining concentrations of analytes and for the incubation of the bacterial strain with growth substrate described herein for the previous analyses were used in the experiments to characterize SK-4. The concentration of SK-4 cells in the experiments was 1.5×10^7 cells per milliliter and the concentration of 2,2′-DCBP or 2,4′-DCBP was 100 milligrams per liter. […] Ortho-substituted congeners are common degradation products of anaerobic reductive dechlorination of more highly chlorinated PCBs (PCBs comprising more than two chlorine atoms) by anaerobic bacteria.
2,2′-DCBP was supplied at a concentration of 100 milligrams per liter dissolved in heptamethyl nonane (HMN), a non-biodegradable PCB solvent. Controls contained HMN but lacked 2,2′-DCBP.

[5] = tested on: consortia of bacterial strains from PCB-contaminated tertiary lagoon sludge; assay: Degradation of selected PCB congeners in aerobic enrichment cultures; conditions: 100 ppm (w/v) mixture of five PCB congeners, with or without biphenyl cosubstrate; hexane extraction 45 days after inoculation, GC
Description: A consortia of bacterial strains was isolated from tertiary lagoon sludge that was contaminated with PCBs for over twenty five years. The sludge was collected from the Winston-Thomas sewage treatment plant in Bloomington, Ind. PCB-degrading strains were enriched using a minimal medium comprising a 100 ppm (w/v) mixture of the following five PCB congeners as the carbon source: 2,3-dichlorobiphenyl (DCBP), 2,4,4′-trichlorobiphenyl (TCBP), 2,4,6-trichlorobiphenyl, 2,2′,5,5′-tetrachlorobiphenyl, and 2,2′,4,4′,5,5′-hexachlorobiphenyl. Biphenyl was also added to the medium in some samples as an additional carbon source to stimulate the cometabolism of biphenyl and the PCBs. About 30-35 milliliters of the medium was inoculated with 5-10 milliliters of PCB-contaminated sludge and incubated in 160-mL serum bottles sealed with Teflon-coated stoppers. The bottles were incubated horizontally on a shaker table at room temperature. The headspace in the bottles was purged with air once a week to maintain aerobic conditions. Every 4-6 weeks, 10% of the culture was transferred to fresh medium. […] The concentrations of the PCB congeners were determined by extracting bottles with hexane 45 days after inoculation (a single bottle extraction), and analyzing hexane extracts by gas chromatography using a DB-5 column (J&W Scientific, Folsum, Calif.) and an electron capture detector. The results from this analysis are depicted in FIG. 1.

bacterial strain SK-1 [6] = assay: Growth of SK-1 on 2,3-DCBP as sole carbon source and its degradation
Protocol: Growth of bacterial strains SK-1 and SK-2 on 2,3-DCBP and 3,4-DCBP, respectively, as a sole carbon source was determined using direct counting and an acridine orange staining method. This method involves filtering 0.1 milliliters of culture through a 0.45 micron filter, staining the cells on the filter using a 0.01% acridine orange solution for 3 to 5 minutes, and counting cells on the filter using an epifluorescent microscope at a 1000′ magnification. SK-1+ contained 2,3-dichlorobiphenyl; SK-2+ contained 3,4-dichlorobiphenyl. Control bottles in each case were identical to experimental bottles in that they were inoculated with the cultures but they lacked the appropriate congener. The initial concentration of PCBs was 500 ppm (w/v). The cell numbers of the two isolates increased by 1.5 orders of magnitude in the presence of the DCBPs used as a growth substrate. The degradation of 2,3-DCBP by SK-1 and production of 2,3-dichlorobenzoate is depicted in FIG. 3. The degradation of 3,4-DCBP by SK-2 and production of 3,4-dichlorobenzoate is depicted in FIG. 4.
(§3) The concentrations of chlorobenzoates and dichlorobiphenyls were assessed after hexane extraction of bottles using gas chromatography analysis of the extracts with an electron capture detector. Chlorobenzoates were analyzed using standard columns after derivitization with pentafluorobenzyl bromide. Dichlorobiphenyls were analyzed using a DB-5 column (J&W Scientific, Fulsom, Calif.).
The data shown in FIGS. 2, 3 and 4 illustrates the nearly complete disappearance of both 2,3-DCBP (0.38 mM initial concentration, FIG. 3) and 3,4-DCBP (0.3 mM initial concentration, FIG. 4) within 10 days of incubation. Duplicate bottles were used and error bars of the pictures represent a standard deviation. Controls contained DCBPs but lacked inoculum. DCBPs were supplied in the bottles using the non-biodegradable carrier heptamethylnonane (HMN).

bacterial strain SK-3 [7] = assay: Characterization of SK-3: growth on and degradation of chlorobiphenyls and chlorobenzoates; conditions: for Chloride and chlorobenzoic acid (CBA) formed on degradation by SK-3: 88 hours, 23° C., aerobic, shaker table
Protocol: as §3
The results from this experiment are depicted in FIG. 5.
The growth of SK-3 on 4-chlorobiphenyl (4-CB) was compared with growth on its non-chlorinated form, biphenyl. […] The results from this experiment are depicted in FIG. 6. The concentration of chloride ion was determined using ion chromatography on a standard Dionex ion chromatography column. The concentration of 4-CB was assessed after hexane extraction of bottles by analyzing the hexane extracts using gas chromatography on a DB-5 column (J&W Scientific, Fulsom, Calif.) and an electron capture detector.
The growth of SK-3 on chlorobenzoates was assessed. […] The results from this experiment are depicted in FIG. 7.
The degradation of three different monochlorobiphenyls, (2-CB, 3-CB, and 4-CB) by SK-3 was assessed at 23° C. under aerobic conditions on a shaker table. After incubation of SK-3 with the selected monochlorobiphenyl for 88 hours, the concentrations of chloride and the corresponding chlorobenzoic acids (CBA) was assessed as described herein. The results from this experiment are depicted in FIG. 8.
The growth of SK-3 on dichloro-biphenyls was also assessed. […] The results of this experiment are depicted in FIG. 9.

[8] = substrate in heptamethyl nonane

Compound | Growth of SK-1 on the substrate as sole carbon source (bacterial strain SK-1 [1]) | Growth of SK-2 on the substrate as sole carbon source (bacterial strain SK-2) | Growth of SK-3 on the substrate as sole carbon source (bacterial strain SK-3 [2]) | Growth of SK-4 on the substrate as sole carbon source (bacterial strain SK-4 [3]) | further results
2,3,4-trichlorobenzoate | No | No | No | – | –
Clc1ccccc1-c1cccc(Cl)c1Cl [2,2′,3-TCBP] | No | No | No | No | –
Clc1ccc(Cl)c(-c2ccccc2Cl)c1 [2,2′,5-TCBP] | – | – | – | No | –
Clc1ccccc1-c1ccccc1Cl [2,2′-DCBP, 2,2′-dichlorobiphenyl] | No | No | No | exhibited growth and Yes | Growth of SK-4 on the substrate as sole carbon source (bacterial strain SK-4 [4]; 100 milligrams per liter): growth; Chloride release on degradation by SK-4 (bacterial strain SK-4 [4]; [8]): stoichiometric release of chloride; Chlorobenzoate production on degradation by SK-4 (bacterial strain SK-4 [4]; [8]): completely transformed into 2-CBA
Clc1cccc(-c2ccccc2)c1Cl [2,3-DCBP, 2,3-dichlorobiphenyl] | exhibited growth and Yes | No | No | No | Degradation of PCB congener in aerobic enrichment cultures [5]: degraded in bottles which lacked a cometabolic substrate; Time to nearly complete disappearance (bacterial strain SK-1 [6]; SK-1, 0.38 mM initial concentration, supplied in heptamethylnonane): ≤ 10 days; Increase of cell numbers in the presence of the DCBP as growth substrate (bacterial strain SK-1 [6]; SK-1, initial concentration 500 ppm (w/v), acridine orange direct counting): 1.5 orders of magnitude
O=C(O)c1cccc(Cl)c1Cl [2,3-dichlorobenzoate] | No | No | No | No | Production of chlorobenzoate from 2,3-DCBP by SK-1 (bacterial strain SK-1 [6]; 0.38 mM 2,3-DCBP initial concentration): almost stoichiometric
Clc1ccc(-c2ccc(Cl)cc2Cl)cc1 [2,4,4′-TCBP, 2,4,4′-trichlorobiphenyl] | – | – | – | – | Degradation of PCB congener in aerobic enrichment cultures [5]: degraded only in the bottles which contained biphenyl as a cosubstrate
Clc1cc(Cl)c(-c2ccccc2)c(Cl)c1 [2,4,6-TCBP, 2,4,6-trichlorobiphenyl] | – | – | – | – | Degradation of PCB congener in aerobic enrichment cultures [5]: degraded only in the bottles which contained biphenyl as a cosubstrate
Clc1ccc(Cl)c(-c2ccccc2)c1 [2,5-DCBP] | Likely | No | No | No | –
O=C(O)c1ccccc1Cl [2-chlorobenzoate] | No | No | No | No | –
Clc1ccccc1-c1ccccc1 [2-chlorobiphenyl] | Yes | Yes | Yes | Yes | Chloride and chlorobenzoic acid (CBA) formed on degradation by SK-3 (bacterial strain SK-3 [7]): partial release of chloride and production of 2-CBA
Clc1ccc(-c2ccccc2Cl)cc1Cl [2′,3,4-TCBP] | No | No | No | No | –
Clc1cccc(-c2cccc(Cl)c2)c1 [3,3′-DCBP] | – | – | No | No | –
Clc1cc(Cl)cc(-c2ccccc2)c1 [3,5-DCBP] | No | No | No | No | –
O=C(O)c1cccc(Cl)c1 [3-chlorobenzoate] | No | No | No | No | –
Clc1cccc(-c2ccccc2)c1 [3-chlorobiphenyl] | Yes | Yes | Yes | Yes | Chloride and chlorobenzoic acid (CBA) formed on degradation by SK-3 (bacterial strain SK-3 [7]): transformed 3-CB to 3-CBA without producing chloride
Clc1ccc(-c2ccc(Cl)cc2)cc1 [4,4′-DCBP] | – | – | No | No | –
Clc1ccc(-c2ccccc2)cc1 [4-chlorobiphenyl] | Yes | Yes | Yes | Yes | Chloride and chlorobenzoic acid (CBA) formed on degradation by SK-3 (bacterial strain SK-3 [7]): did not generate 4-CBA; Release of chloride during degradation by SK-3 (bacterial strain SK-3 [7]; chloride by ion chromatography): stoichiometric production of chloride
O=C(O)c1ccccc1 [Benzoate] | Yes | Yes | Yes | Yes | –
c1ccc(-c2ccccc2)cc1 [Biphenyl] | Yes | Yes | Yes | Yes | –
O=C(O)CCl [Chloroacetate] | Yes | No | Yes | Yes | –
c1ccc2ccccc2c1 [Naphthalene] | No | No | No | No | –
Oc1ccccc1 [Phenol] | Yes | No | Yes | Yes | –
